Test results published in paper PMC3914206.

What was measured:
Assay type in all cases: binding
Conditions in all cases: Compound Concentration 10 µM
panel of 442 kinases [1] = biological target: T1, panel of 442 kinases (Homo sapiens, UniProt O75914)
T1 construct: purchased KINOMEscan
Excerpt: (§1) We assessed the selectivity of members of this scaffold using the KINOMEscan methodology across a near comprehensive panel of 442 kinases [[18,27]].

panel of 442 kinases [2] = biological target: T2, panel of 442 kinases (Homo sapiens, UniProt P52564)
T2 construct: purchased KINOMEscan
T2 sequence (P52564 1-334): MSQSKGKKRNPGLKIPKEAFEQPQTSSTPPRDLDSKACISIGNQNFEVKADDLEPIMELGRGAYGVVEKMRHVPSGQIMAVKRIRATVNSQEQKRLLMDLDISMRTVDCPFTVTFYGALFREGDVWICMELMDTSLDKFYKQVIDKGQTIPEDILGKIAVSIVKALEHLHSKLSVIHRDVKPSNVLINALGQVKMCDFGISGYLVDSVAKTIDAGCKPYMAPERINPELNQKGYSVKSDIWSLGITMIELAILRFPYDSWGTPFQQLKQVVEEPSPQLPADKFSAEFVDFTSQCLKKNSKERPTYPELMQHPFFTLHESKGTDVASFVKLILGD
Excerpt: as §1

panel of 442 kinases [3] = biological target: T3, panel of 442 kinases (Homo sapiens, UniProt Q16513)
T3 construct: purchased KINOMEscan
Excerpt: as §1

T1 sequence (O75914 whole entry): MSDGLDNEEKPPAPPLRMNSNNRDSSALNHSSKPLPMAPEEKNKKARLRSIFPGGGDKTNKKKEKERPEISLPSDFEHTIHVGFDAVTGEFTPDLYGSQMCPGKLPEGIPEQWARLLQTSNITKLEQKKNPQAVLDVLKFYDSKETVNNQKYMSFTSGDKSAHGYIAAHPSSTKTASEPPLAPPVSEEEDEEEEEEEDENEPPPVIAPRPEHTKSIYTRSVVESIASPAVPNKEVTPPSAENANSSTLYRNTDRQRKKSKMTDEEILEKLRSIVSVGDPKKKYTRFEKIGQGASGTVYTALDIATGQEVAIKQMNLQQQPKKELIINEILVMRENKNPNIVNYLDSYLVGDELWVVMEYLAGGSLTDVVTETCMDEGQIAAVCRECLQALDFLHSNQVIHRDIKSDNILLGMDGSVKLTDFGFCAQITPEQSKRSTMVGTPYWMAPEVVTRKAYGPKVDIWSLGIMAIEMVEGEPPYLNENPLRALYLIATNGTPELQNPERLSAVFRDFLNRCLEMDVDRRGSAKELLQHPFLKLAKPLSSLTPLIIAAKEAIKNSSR
T3 sequence (Q16513 whole entry): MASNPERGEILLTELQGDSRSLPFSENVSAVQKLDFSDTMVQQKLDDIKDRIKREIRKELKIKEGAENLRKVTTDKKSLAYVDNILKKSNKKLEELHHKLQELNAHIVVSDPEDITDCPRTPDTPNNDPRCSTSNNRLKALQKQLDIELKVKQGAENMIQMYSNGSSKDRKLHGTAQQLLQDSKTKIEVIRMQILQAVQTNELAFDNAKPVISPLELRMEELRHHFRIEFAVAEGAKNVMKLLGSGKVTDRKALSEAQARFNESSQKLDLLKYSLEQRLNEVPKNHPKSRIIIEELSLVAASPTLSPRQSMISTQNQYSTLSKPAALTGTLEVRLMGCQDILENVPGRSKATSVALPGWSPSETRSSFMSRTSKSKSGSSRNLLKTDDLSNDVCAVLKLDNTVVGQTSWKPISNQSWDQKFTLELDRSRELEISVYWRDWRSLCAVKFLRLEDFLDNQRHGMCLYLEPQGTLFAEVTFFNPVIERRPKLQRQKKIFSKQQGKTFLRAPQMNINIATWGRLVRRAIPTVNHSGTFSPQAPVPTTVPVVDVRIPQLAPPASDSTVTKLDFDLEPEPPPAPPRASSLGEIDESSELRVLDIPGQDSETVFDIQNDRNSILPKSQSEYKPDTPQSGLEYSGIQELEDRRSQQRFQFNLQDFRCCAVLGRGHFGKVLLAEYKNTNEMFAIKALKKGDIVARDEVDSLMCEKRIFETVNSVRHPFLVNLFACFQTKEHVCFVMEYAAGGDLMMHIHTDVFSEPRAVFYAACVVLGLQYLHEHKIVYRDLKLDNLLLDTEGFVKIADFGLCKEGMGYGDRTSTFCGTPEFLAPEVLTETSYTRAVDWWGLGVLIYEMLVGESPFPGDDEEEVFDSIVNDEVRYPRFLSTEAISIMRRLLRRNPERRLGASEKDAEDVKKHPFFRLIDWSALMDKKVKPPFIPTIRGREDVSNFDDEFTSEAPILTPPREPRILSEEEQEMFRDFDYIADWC

| SMILES | KINOMEscan: PAK3 (panel of 442 kinases [1]) | KINOMEscan: MEK6 (panel of 442 kinases [2]) | KINOMEscan: PKN2 (panel of 442 kinases [3]) |
| --- | --- | --- | --- |
| COc1cc(C(=O)N2CCC(N3CCN(C)CC3)CC2)ccc1Nc1ncc2c(n1)N(C1CCCC1)c1ccccc1C(=O)N2C [Compound 25, 11-cyclopentyl-2-((2-methoxy-4-(4-(4-methylpiperazin-1-yl)piperidine-1-carbonyl)phenyl)amino)-5-methyl-5H-benzo[e]pyrimido[5,4-b][1,4]diazepin-6(11H)-one] | 69 | 61 | 100 |
| COc1cc(C(=O)N2CCC(N3CCN(C)CC3)CC2)ccc1Nc1ncc2c(n1)N1CCc3cccc(c31)C(=O)N2C [Compound 24] | 80 | 66 | 82 |
| COc1cc(C(=O)N2CCC(N3CCN(C)CC3)CC2)ccc1Nc1ncc2c(n1)N(C)c1ccccc1C(=O)N2C [15 (LRRK2-IN-1)] | 83 | 83 | 95 |
| CCOc1cc(C(=O)N2CCC(N3CCN(C)CC3)CC2)ccc1Nc1ncc2c(n1)N(C1CCCC1)c1ccccc1C(=O)N2C [Compound 26] | 95 | 84 | 100 |
